In brackets after ≈: the same amount, converted by molar mass. Read-outs that look alike come from different tables or passages of the source.
Columns and labels:
[1] = tested on: polyresistant Mtb strains; settings: polyresistant Mtb strains (e.g., INH, STR, EMB); cited from earlier work
[2] = tested on: Mtb 8666/2010; test: microbe, parasite or virus in culture; assay type: cell-based; settings: Mycobacterium tuberculosis, read-out: MIC Mtb 8666/2010
[3] = tested on: Mtb Praha 1; test: microbe, parasite or virus in culture; assay type: cell-based; settings: Mycobacterium tuberculosis, read-out: MIC Mtb Praha 1
[4] = tested on: Mtb 234/2005; test: microbe, parasite or virus in culture; assay type: cell-based; settings: Mycobacterium tuberculosis, read-out: MIC Mtb 234/2005
[5] = tested on: Mtb Praha 131; test: microbe, parasite or virus in culture; assay type: cell-based; settings: Mycobacterium tuberculosis, read-out: MIC Mtb Praha 131
[6] = tested on: Mtb 9449/2007; test: microbe, parasite or virus in culture; assay type: cell-based; settings: Mycobacterium tuberculosis, read-out: MIC Mtb 9449/2007
[7] = tested on: Mtb Praha 4; test: microbe, parasite or virus in culture; assay type: cell-based; settings: Mycobacterium tuberculosis, read-out: MIC Mtb Praha 4
[8] = tested on: Mtb 7357/1998; test: microbe, parasite or virus in culture; assay type: cell-based; settings: Mycobacterium tuberculosis, read-out: MIC Mtb 7357/1998

CCCCCCCCCCCCCCCCCc1nnc(-c2ccncc2)o1 [III]
inhibitory concentration (MIC) [1]: ≥ 2.59 µM

CCCCCCCCCCCCCCCc1nnc(-c2ccncc2)o1 [II]
inhibitory concentration (MIC) [1]: ≥ 2.59 µM

CCCCCCCCCCCCNC(=S)NNC(=O)c1cc([N+](=O)[O-])cc([N+](=O)[O-])c1 [Compound 4s, 2-(3,5-Dinitrobenzoyl)-N-dodecylhydrazine-1-carbothioamide]
MIC ([2]; 8666/2010, 336 h): 1 µM (≈ 0.454 µg/mL)
MIC ([2]; 8666/2010, 504 h): 2 µM (≈ 0.907 µg/mL)
MIC ([3]; PRAHA1, 336 h): 2 µM (≈ 0.907 µg/mL)
MIC ([3]; PRAHA1, 504 h): 2 µM (≈ 0.907 µg/mL)
MIC ([4]; 234/2005, 336 h): 2 µM (≈ 0.907 µg/mL)
MIC ([4]; 234/2005, 504 h): 4 µM (≈ 1.81 µg/mL)
MIC ([5]; PRAHA131, 336 h): 2 µM (≈ 0.907 µg/mL)
MIC ([5]; PRAHA131, 504 h): 4 µM (≈ 1.81 µg/mL)
MIC ([6]; 9449/2007, 336 h): 2 µM (≈ 0.907 µg/mL)
MIC ([6]; 9449/2007, 504 h): 2 µM (≈ 0.907 µg/mL)
MIC ([7]; PRAHA4, 336 h): 2 µM (≈ 0.907 µg/mL)
MIC ([7]; PRAHA4, 504 h): 2 µM (≈ 0.907 µg/mL)
MIC ([8]; 7357/1998, 336 h): 1 µM (≈ 0.454 µg/mL)
MIC ([8]; 7357/1998, 504 h): 2 µM (≈ 0.907 µg/mL)

CCCCCCNc1nnc(-c2cc([N+](=O)[O-])cc([N+](=O)[O-])c2)o1 [Compound 5f, 5-(3,5-Dinitrophenyl)-N-hexyl-1,3,4-oxadiazol-2-amine]
MIC ([2]; 8666/2010, 336 h): ≤ 0.03 µM
MIC ([2]; 8666/2010, 504 h): ≤ 0.03 µM
MIC ([3]; PRAHA1, 336 h): ≤ 0.03 µM
MIC ([3]; PRAHA1, 504 h): ≤ 0.03 µM
MIC ([4]; 234/2005, 336 h): ≤ 0.03 µM
MIC ([4]; 234/2005, 504 h): ≤ 0.03 µM
MIC ([5]; PRAHA131, 336 h): ≤ 0.03 µM
MIC ([5]; PRAHA131, 504 h): ≤ 0.03 µM
MIC ([6]; 9449/2007, 336 h): ≤ 0.03 µM
MIC ([6]; 9449/2007, 504 h): ≤ 0.03 µM
MIC ([7]; PRAHA4, 336 h): ≤ 0.03 µM
MIC ([7]; PRAHA4, 504 h): ≤ 0.03 µM
MIC ([8]; 7357/1998, 336 h): ≤ 0.03 µM
MIC ([8]; 7357/1998, 504 h): ≤ 0.03 µM

— article PMC12121777 (PLOS One, 2025)
